Experimental data published in patent publication US20250100977A1, “MERCAPTOPYRIMIDINE COMPOUNDS THAT INHIBIT NONHOMOLOGOUS END JOINING AND METHODS THEREOF” (INDIAN INSTITUTE OF SCIENCE, priority 2021, published 2025).
pIC50: −log10 of the molar value.

Tests used:
[1] = system: HeLa; assay: Cytotoxicity (viable cells) in HeLa; assay type: cell-based; conditions: Homo sapiens, HeLa, 48 h, Table 1; 48 h; read-out: IC50 in cancer cell lines, HeLa
Experimental: (§1) The compounds of the present invention were screened initially in leukemic and cervical cancer cell lines (Table 1). […] In cervical cancer cell line HeLa, IC50 was 5 and 2 μM, respectively for SCR116 and SCR132 (FIG. 5A-B).
(§2) Ligase IV specificity of the compounds of the present invention inside the cells were also determined using Ligase IV knock out (KO) cell line N114 compared to the wild type Nalm6 (Table 2, FIGS. 5C, D, E and F). […] Table 1 showing IC50 of SCR7 derivatives in cancer cell lines Nalm6 and HeLa. IC50 was calculated using GraphPad Prism software from the percentage of viable cells following treatment with the compounds at 48 h. Table 2 showing IC50 of SCR116 and SCR132 in a panel of 16 cancer cell lines.

[2] = system: Nalm6; assay: Cytotoxicity (viable cells) in Nalm6; assay type: cell-based; conditions: Homo sapiens, NALM-6; Table 1; 48 h; read-out: IC50 in cancer cell lines, Nalm6
Experimental: as §1, §2

[3] = system: rat testicular extracts; assay: Inhibition of end joining of rat testicular extracts (NHEJ); assay type: biochemical; conditions: 500 μM; rat testicular extract
Experimental: The compounds of the present invention were tested for their effects on inhibition of DNA end joining reactions using rat tissue extracts and purified DNA Ligase IV/XRCC4. Rat testicular extracts were prepared from testes of 4-6 week old male Wistar rats, Rattus norvegicus using ammonium sulphate precipitation method. To determine end joining of cell-free extracts, radiolabeled double-stranded (ds) oligomeric DNA substrate was incubated with rat testicular extract at 25° C. in suitable NHEJ buffer. Extracts were incubated for 30 min with the compounds of Formula I (01-41, 500 μM) as prepared in Example 1, and then radioactive DNA substrate was added to the reaction mixture and incubated for 1 h at 25° C. Reactions were stopped using EDTA, and products were purified using phenol: chloroform extraction and loaded on denaturing polyacrylamide gel. […] Joining efficiency was calculated using the intensity of product bands (150 bp or higher) in individual lanes in Multi Gauge software as compared to control (lanes 2,3). Lane 1 denotes radioactive substrate in absence of protein or inhibitor, while M denotes radiolabeled 50 bp DNA ladder.
(§3) Effects of these compounds on NHEJ and Ligase IV mediated joining were evaluated (FIG. 4A-K). The reactions were terminated by EDTA (10 mM), products were purified using phenol/chloroform, precipitated with chilled ethanol and glycogen, and resolved on 8% denaturing PAGE. The gel was dried, exposed, and signal was detected using phosphor Imager FLA9000 (Fuji, Japan), and quantified in MultiGauge software expressed as Photo Stimulated Luminescence Units (PSLU). Inhibition of end joining was reported at 200 μM and 100 μM, respectively for SCR116 and SCR132 (FIGS. 4A, B, C and D), with >50% inhibition at 200 and 100 μM concentrations, respectively. […] FIG. 4K depict the purification profile of Ligase IV and XRCC4. Further FIGS. 4L-M represent inhibition of end joining catalysed by (FIG. 4L) purified Ligase III/XRCCI in presence of SCR116 and SCR132 (50, 100, 200, 500, 1000 μM) and (FIG. 4M) by purified Ligase I in presence of increasing concentrations of SCR116 and SCR132 (10, 50, 100, 200, 500, 1000 μM).

[4] = target: T1, DNA Ligase IV/XRCC4 (Homo sapiens, UniProt P49917); assay: Inhibition of end joining by purified DNA Ligase IV/XRCC4; assay type: biochemical; conditions: 200 μM; purified Ligase IV/XRCC4
T1 construct: made in house; host or cells: bacteria
Experimental: The compounds of Formula I were evaluated for their specific inhibition activity towards enzyme DNA Ligase IV. DNA Ligase IV/XRCC4 was purified from bacteria using Ni-NTA column (FIG. 2A), and used for evaluation of inhibition of end joining of the compounds (01-41) at 200 μM (FIGS. 2B, C and D). The compounds were incubated with purified Ligase IV/XRCC4 in suitable NHEJ buffer at 25° C. for 30 min, followed by addition of radiolabeled DNA, and further incubation for 1 h at 25° C. Products were purified using phenol: chloroform and run on denaturing PAGE.
as §3

[5] = system: Ligase IV knock out (KO) cell line N114; conditions: Vartak et al. 2018; cited from earlier work

T1 sequence (P49917 whole entry): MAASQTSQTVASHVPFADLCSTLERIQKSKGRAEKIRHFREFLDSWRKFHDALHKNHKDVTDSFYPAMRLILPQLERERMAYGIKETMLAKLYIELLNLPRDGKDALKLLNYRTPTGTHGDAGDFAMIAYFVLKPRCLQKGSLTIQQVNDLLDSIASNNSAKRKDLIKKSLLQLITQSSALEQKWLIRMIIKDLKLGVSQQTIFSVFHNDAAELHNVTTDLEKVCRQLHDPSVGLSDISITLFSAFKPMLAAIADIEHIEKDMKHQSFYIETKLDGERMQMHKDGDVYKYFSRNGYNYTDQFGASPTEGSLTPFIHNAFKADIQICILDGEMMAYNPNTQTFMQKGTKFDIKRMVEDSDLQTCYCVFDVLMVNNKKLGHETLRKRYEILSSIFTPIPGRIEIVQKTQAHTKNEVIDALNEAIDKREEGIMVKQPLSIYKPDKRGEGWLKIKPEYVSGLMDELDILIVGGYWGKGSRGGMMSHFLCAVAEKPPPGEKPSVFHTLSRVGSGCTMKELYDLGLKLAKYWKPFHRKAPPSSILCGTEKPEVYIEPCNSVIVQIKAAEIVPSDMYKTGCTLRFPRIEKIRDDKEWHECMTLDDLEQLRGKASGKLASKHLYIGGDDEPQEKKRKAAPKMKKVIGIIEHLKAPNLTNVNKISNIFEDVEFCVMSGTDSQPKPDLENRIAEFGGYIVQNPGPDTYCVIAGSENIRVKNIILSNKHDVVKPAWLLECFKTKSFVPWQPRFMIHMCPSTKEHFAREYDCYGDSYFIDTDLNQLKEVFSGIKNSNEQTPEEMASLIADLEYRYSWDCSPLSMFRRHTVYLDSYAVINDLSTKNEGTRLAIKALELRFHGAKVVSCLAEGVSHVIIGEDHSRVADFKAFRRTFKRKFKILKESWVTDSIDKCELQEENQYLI
T1 sequence (Q13426 whole entry partner): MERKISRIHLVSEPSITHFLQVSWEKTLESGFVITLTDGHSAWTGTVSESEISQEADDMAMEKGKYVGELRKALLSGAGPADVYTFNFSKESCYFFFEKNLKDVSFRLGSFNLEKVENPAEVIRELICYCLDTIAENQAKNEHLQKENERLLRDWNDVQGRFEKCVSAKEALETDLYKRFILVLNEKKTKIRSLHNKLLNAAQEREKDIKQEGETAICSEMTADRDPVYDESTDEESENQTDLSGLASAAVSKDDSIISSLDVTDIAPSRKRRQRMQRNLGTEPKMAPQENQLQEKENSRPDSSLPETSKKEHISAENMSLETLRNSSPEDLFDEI

SMILES | pIC50 [1] | pIC50 [2] | Inhibition of end joining (no joined product observed) [3] | Inhibition of end joining compared with control [4] | Effect in KO in absence of Ligase IV [5]
Nc1nc(S)nc(O)c1/N=C/c1cccs1 [Compound 01, (E)-6-amino-2-mercapto-5-((thiophen-2-ylmethylene)amino)pyrimidin-4-ol] | 4.75 | 4.63 | – | – | –
Nc1nc(S)nc(O)c1/N=C/c1ncc[nH]1 [Compound 04, (E)-5-(((1H-imidazol-2-yl)methylene)amino)-6-amino-2-mercaptopyrimidin-4-ol] | 4.02 | 4.53 | – | – | –
Nc1nc(S)nc(O)c1/N=C/c1cncc2ccccc12 [Compound 05, 6-amino-5-{[(E)-isoquinolin-4-ylmethylidene]amino}-2-mercaptopyrimidin-4-ol] | 4.92 | 4.74 | – | – | –
Nc1nc(S)nc(O)c1/N=C/c1ccccc1O [Compound 06, (E)-6-amino-5-((2-hydroxybenzylidene)amino)-2-mercaptopyrimidin-4-ol] | 4.76 | 4.71 | showed inhibition of end joining | – | –
Nc1nc(S)nc(O)c1/N=C/c1cccnc1 [Compound 07, (E)-6-amino-2-mercapto-5-((pyridin-3-ylmethylene)amino)pyrimidin-4-ol] | 4.55 | 4.58 | – | – | –
Nc1nc(S)nc(O)c1/N=C/c1ccc[nH]1 [Compound 12, (E)-5-(((1H-pyrrol-2-yl)methylene)amino)-6-amino-2-mercaptopyrimidin-4-ol] | 4.31 | 4.53 | showed inhibition of end joining | significant inhibition of end joining | –
Nc1nc(S)nc(O)c1/N=C/c1nccs1 [Compound 13, (E)-6-amino-2-mercapto-5-((thiazol-2-ylmethylene)amino)pyrimidin-4-ol] | 3.87 | 4.59 | – | – | –
CC(=O)OCc1ccc(/C=N/c2c(N)nc(S)nc2O)o1 [Compound 15, (E)-(5-(((4-amino-6-hydroxy-2-mercaptopyrimidin-5-yl)imino)methyl)furan-2-yl)methylacetate] | 4.10 | 4.53 | showed inhibition of end joining | significant inhibition of end joining | –
Nc1nc(S)nc(O)c1/N=C/c1cccc2ccccc12 [Compound 17, (E)-6-amino-2-mercapto-5-((naphthalen-1-ylmethylene)amino)pyrimidin-4-ol] | 4.53 | 4.53 | – | – | –
Nc1nc(S)nc(O)c1/N=C/c1ccnc(Cl)c1 [Compound 31, (E)-6-amino-5-(((2-chloropyridin-4-yl)methylene)amino)-2-mercaptopyrimidin-4-ol] | 5.16 | 5.39 | showed inhibition of end joining | – | –
Nc1nc(S)nc(O)c1/N=C/c1ccncc1F [Compound 33, (E)-6-amino-5-(((3-fluoropyridin-4-yl)methylene)amino)-2-mercaptopyrimidin-4-ol] | 4.68 | 5.65 | – | – | –
N#Cc1ccc(/C=N/c2c(N)nc(S)nc2O)s1 [Compound 34, (E)-5-(((4-amino-6-hydroxy-2-mercaptopyrimidin-5-yl)imino)methyl)thiophene-2-carbonitrile] | 4.38 | 6.02 | – | – | –
Nc1nc(S)nc(O)c1/N=C/c1ccc(Br)s1 [Compound 35, (E)-6-amino-5-(((5-bromothiophen-2-yl)methylene)amino)-2-mercaptopyrimidin-4-ol] | 4.74 | 5.16 | – | – | –
N#Cc1ccc(/C=N/c2c(N)nc(S)nc2O)cc1 [Compound 36, (E)-4-(((4-amino-6-hydroxy-2-mercaptopyrimidin-5yl)imino)methyl)benzonitrile] | 4.57 | 5.54 | – | – | –
CN(C)c1ccc(/C=N/c2c(N)nc(S)nc2O)cc1 [Compound 37, (E)-6-amino-5-((4-(dimethylamino)benzylidene)amino)-2-mercaptopyrimidin-4-ol] | 4.32 | 4.82 | – | – | –
Nc1nc(S)nc(O)c1/N=C/c1ccc2ccccc2n1 [Compound 38, (E)-6-amino-2-mercapto-5-((quinolin-2-ylmethylene)amino)pyrimidin-4-ol] | 4.34 | 4.59 | – | – | –
COc1cc(/C=N/c2c(N)nc(S)nc2O)ccc1O [Compound 39, (E)-6-amino-5-((4-hydroxy-3-methoxybenzylidene)amino)-2-mercaptopyrimidin-4-ol] | 4.36 | 4.47 | – | – | –
Nc1nc(S)nc(O)c1/N=C/c1cc(Br)ccc1O [Compound 40, (E)-6-amino-5-((5-bromo-2-hydroxybenzylidene)amino)-2-mercaptopyrimidin-4-ol] | 4.74 | 4.90 | showed inhibition of end joining | – | –
Nc1nc(S)nc(O)c1/N=C/c1cc(F)c(O)c(F)c1 [Compound 41, (E)-6-amino-5-((3,5-difluoro-4-hydroxybenzylidene)amino)-2-mercaptopyrimidin-4-ol] | 4.54 | 4.54 | – | – | –
O=c1[nH]c(=S)[nH]c2nc(-c3ccccc3)c(-c3ccccc3)nc12 [SCR7-pyrazine] | – | – | – | – | nonspecific effects
